Measurements taken from patent publication US10251860B2, “Compounds for bone healing” (University of Pittsburgh—Of the Commonwealth System of …, priority 2015, dated 2019).
Entries after “also recorded” stand apart in the source; their conditions may differ.

Columns and labels:
[1] = test system: fibrotic phase associated RNA (TGF-β, TLR4, TLR7), bromodomain transcripts; test: RT-PCR of irradiation induced gene transcripts in lung; type: in vivo, mouse; details: 20 Gy thoracic irradiation, MMS350 in drinking water
Experimental: To isolate different cellular compartments of the lung, mice were sacrificed and the pulmonary cavity was opened, and lungs perfused by injecting 5 ml of phosphate-buffered saline (PBS) into the right ventricle of the heart. To isolate pulmonary endothelial cells, the lungs were filled with 1 ml of dispase (39.65 mg/ml), allowed to collapse, and then expanded with 0.5 ml of a 1% low-melt agarose, which had been stored at 45° C. in a water bath. The lungs were immediately covered with ice and incubated for 2 minutes. […] The cells were analyzed by flow cytometry with PECAM+ endothelial cells and PECAM− and CD45− cells alveolar cells isolated.
RNA was extracted from mouse lung or purified cell populations using the TRIzol reagent (Invitrogen, Carlsbad, Calif.) following the manufacturer's instructions, quantified using a spectrophotometer, and stored at −80° C. […]

[2] = test system: C57BL/6NTac female mice, tibia holes; test: Bone wound healing in drilled mouse tibias (high resolution CT); type: in vivo; details: day 21
Experimental: Eighteen C57BL/6NTac female mice were divided into 2 groups of 9 mice. The first group was placed on water containing 400 μM MMS350. One week later the MMS350 mice were injected IP with 20 mg/kg MMS350 in water 15 minutes before irradiation. The control mice and the MMS350 treated mice were anesthetized with Nembutal and the right hind leg was irradiated to 20 Gy with the remainder of the mouse shielded from the irradiation. Twenty-four hours later holes were drilled into the tibias of all the mice. The MMS350 treated mice were kept on the MMS350 with the water changed weekly. Twenty-one days later the mice were sacrificed and both tibias removed, and fixed. The tibias were imaged using a high resolution CT. The holes in the tibias were measured and the volume of the holes determined.

liver cell line (HepG2) = type: cell-based
Excerpt: (§1) The cellular toxicity of sulfoxide 3 was further determined for a breast cancer cell line (MDA-MB-231) and a liver cell line (HepG2).

[3] = test system: breast cancer cell line (MDA-MB-231); type: cell-based
Excerpt: as §1

SMILES: CC1(C[S+]([O-])CC2(C)COC2)COC1 [Compound 3, 3,3′-Sulfinylbis(methylene)bis(3-methyloxetane)]
- bromodomain transcripts [1]: little effect on bromodomain transcripts
- expression of fibrosis phase mRNA [1]: decreased expression of fibrosis phase mRNA expression; also recorded: downregulation of transcription of mRNA associated with the late pulmonary fibrotic reaction
- diameter of tibia hole ([2]; 0 Gy tibia vs control 0 Gy, 400 μM in water plus 20 mg/kg IP): significantly smaller
- volume of tibia hole ([2]; 0 Gy+ MMS350 vs control 20 Gy irradiated tibia): significantly smaller
- diameter of tibia hole ([2]; 20 Gy irradiated tibia vs control 20 Gy): significantly smaller
- volume of tibia hole ([2]; 20 Gy+ MMS350 vs control 20 Gy irradiated tibia): significantly smaller
- GI50 (liver cell line (HepG2)): ~200 mM
- GI50 [3]: ~200 mM
